Counter-ions that a name gives are not always drawn. Like-named read-outs stand apart in the source and are kept apart here.
Key:
[1] = test system: BN-rats; assay: Airways' hyper-responsiveness ex vivo: tracheal contraction to acetylcholine after antigen challenge and intratracheal pretreatment (Model 1); format: in vivo, rat; conditions: for MAX** Contraction at maximal Ach concentration relative to control (mean ± SEM) / ED50* log M acetylcholine (Ach), causing 50% contraction relative to control (mean ± SEM): trachea 48 h post challenge; for ED50* log M acetylcholine (Ach), causing 50% contraction relative to control (mean ± SEM): sensitized BN rats
Experimental: Brown Norway (BN) rats were actively sensitized to ovalbumin (OA) by a subcutaneous injection of 0.5 ml of OA/Al(OH)3 gel mixture (2 mg OA+10 g Al(OH)3/100 ml saline) on day 1 with subsequent subcutaneous injections (10 mg OA+10 g Al(OH)3/100 ml saline) given on days 14 and 21. On day 28, animals received the compound described in the first example intratracheally (0.001; 0.01; 0.1 or 1.0 mg/kg dose) 2 hours before antigen challenge. Antigen challenge was performed by inhalation of nebulised ovalbumin (1% antigen solution administered in a TSE inhalation system for 1 hour). Animals were sacrificed 48 hours post antigen challenge wherein the tracheas were removed to an organ bath. Dissected tracheas were allowed to equilibrate for 30 minutes before measuring tracheal spasmogenic response curves to acetylcholine (Ach).

[2] = test system: BN rats; assay: Allergen stimulated mucus production of airways epithelial cells (Model 2); format: in vivo, rat; conditions: for number of PAS(+) cells as percent of total number of cells (average ± SEM): lungs 48 hours after challenge
Experimental: Sensitized BN rats were treated intratracheally with varying (0.001-1.0 mg/kg) dose of compound described in the first example, two hours before antigenic challenge, using a similar protocol described in Model 1. Lungs were collected 48 hours after challenge and were fixed in 8% phosphate buffered formaldehyde. Samples were then processed for histochemistry routinely. 5 μm thick sections were stained with periodic-acid-Schiff (PAS) reagents and were counterstained with haematoxylin-eosine. On the sections each epithelial cells of the airways were counted in the whole preparation at a magnification of 400×. The number of PAS(+) [mucus producing] epithelial cells was expressed as the ratio of the total number of epithelial cells.

[3] = test system: BN rats; assay: Extent of perivascular oedema developed in asthmatic lung tissue (Model 3); format: in vivo, rat; conditions: for Oedema* area of oedema relative to area of vasculature (average ± SEM): lungs 48 hours after challenge
Experimental: Sensitized BN rats were treated intratracheally with varying (0.001-1.0 mg/kg) dose of compound described in the first example, two hours before antigenic challenge, using a similar protocol described in Model 1. Lungs were collected 48 hours after challenge and were fixed in 8% phosphate buffered formaldehyde. Samples were then processed for histochemistry routinely. 5 μm thick sections were stained with periodic-acid-Schiff (PAS) reagents and were counterstained with haematoxylin-eosine. On the sections the area of the connective tissue around the vasculare was determined and expressed as a ratio of the area of the corresponding blood vessel itself.

[4] = test system: BN rats; assay: Extent of peribronchial eosinophilia developed in asthmatic lung tissue (Model 4); format: in vivo, rat; conditions: for peribronchial eosinophil number per visual field (average ± SEM): lungs 48 hours after challenge
Experimental: Sensitized BN rats were treated intratracheally with varying (0.001-1.0 mg/kg) dose of compound described in the first example, two hours before antigenic challenge, using a similar protocol described in Model 1. Lungs were collected 48 hours after challenge and were fixed in 8% phosphate buffered formaldehyde. Samples were then processed for histochemistry routinely. 5 μm thick sections were stained with May Gruenvald Giemsa and the number of eosinophils, situated peribronchially, was determined.

[5] = biological target: T1, IP-3 receptor (Rattus norvegicus, UniProt P29994); assay: IP-3 receptor antagonistic effect: inhibition of IP3 binding in rat cerebellum membrane preparations (Model 5)
T1 construct: from tissue; host or cells: rat cerebellum (microsomal membrane preparation)
T1 sequence (P29994 whole entry): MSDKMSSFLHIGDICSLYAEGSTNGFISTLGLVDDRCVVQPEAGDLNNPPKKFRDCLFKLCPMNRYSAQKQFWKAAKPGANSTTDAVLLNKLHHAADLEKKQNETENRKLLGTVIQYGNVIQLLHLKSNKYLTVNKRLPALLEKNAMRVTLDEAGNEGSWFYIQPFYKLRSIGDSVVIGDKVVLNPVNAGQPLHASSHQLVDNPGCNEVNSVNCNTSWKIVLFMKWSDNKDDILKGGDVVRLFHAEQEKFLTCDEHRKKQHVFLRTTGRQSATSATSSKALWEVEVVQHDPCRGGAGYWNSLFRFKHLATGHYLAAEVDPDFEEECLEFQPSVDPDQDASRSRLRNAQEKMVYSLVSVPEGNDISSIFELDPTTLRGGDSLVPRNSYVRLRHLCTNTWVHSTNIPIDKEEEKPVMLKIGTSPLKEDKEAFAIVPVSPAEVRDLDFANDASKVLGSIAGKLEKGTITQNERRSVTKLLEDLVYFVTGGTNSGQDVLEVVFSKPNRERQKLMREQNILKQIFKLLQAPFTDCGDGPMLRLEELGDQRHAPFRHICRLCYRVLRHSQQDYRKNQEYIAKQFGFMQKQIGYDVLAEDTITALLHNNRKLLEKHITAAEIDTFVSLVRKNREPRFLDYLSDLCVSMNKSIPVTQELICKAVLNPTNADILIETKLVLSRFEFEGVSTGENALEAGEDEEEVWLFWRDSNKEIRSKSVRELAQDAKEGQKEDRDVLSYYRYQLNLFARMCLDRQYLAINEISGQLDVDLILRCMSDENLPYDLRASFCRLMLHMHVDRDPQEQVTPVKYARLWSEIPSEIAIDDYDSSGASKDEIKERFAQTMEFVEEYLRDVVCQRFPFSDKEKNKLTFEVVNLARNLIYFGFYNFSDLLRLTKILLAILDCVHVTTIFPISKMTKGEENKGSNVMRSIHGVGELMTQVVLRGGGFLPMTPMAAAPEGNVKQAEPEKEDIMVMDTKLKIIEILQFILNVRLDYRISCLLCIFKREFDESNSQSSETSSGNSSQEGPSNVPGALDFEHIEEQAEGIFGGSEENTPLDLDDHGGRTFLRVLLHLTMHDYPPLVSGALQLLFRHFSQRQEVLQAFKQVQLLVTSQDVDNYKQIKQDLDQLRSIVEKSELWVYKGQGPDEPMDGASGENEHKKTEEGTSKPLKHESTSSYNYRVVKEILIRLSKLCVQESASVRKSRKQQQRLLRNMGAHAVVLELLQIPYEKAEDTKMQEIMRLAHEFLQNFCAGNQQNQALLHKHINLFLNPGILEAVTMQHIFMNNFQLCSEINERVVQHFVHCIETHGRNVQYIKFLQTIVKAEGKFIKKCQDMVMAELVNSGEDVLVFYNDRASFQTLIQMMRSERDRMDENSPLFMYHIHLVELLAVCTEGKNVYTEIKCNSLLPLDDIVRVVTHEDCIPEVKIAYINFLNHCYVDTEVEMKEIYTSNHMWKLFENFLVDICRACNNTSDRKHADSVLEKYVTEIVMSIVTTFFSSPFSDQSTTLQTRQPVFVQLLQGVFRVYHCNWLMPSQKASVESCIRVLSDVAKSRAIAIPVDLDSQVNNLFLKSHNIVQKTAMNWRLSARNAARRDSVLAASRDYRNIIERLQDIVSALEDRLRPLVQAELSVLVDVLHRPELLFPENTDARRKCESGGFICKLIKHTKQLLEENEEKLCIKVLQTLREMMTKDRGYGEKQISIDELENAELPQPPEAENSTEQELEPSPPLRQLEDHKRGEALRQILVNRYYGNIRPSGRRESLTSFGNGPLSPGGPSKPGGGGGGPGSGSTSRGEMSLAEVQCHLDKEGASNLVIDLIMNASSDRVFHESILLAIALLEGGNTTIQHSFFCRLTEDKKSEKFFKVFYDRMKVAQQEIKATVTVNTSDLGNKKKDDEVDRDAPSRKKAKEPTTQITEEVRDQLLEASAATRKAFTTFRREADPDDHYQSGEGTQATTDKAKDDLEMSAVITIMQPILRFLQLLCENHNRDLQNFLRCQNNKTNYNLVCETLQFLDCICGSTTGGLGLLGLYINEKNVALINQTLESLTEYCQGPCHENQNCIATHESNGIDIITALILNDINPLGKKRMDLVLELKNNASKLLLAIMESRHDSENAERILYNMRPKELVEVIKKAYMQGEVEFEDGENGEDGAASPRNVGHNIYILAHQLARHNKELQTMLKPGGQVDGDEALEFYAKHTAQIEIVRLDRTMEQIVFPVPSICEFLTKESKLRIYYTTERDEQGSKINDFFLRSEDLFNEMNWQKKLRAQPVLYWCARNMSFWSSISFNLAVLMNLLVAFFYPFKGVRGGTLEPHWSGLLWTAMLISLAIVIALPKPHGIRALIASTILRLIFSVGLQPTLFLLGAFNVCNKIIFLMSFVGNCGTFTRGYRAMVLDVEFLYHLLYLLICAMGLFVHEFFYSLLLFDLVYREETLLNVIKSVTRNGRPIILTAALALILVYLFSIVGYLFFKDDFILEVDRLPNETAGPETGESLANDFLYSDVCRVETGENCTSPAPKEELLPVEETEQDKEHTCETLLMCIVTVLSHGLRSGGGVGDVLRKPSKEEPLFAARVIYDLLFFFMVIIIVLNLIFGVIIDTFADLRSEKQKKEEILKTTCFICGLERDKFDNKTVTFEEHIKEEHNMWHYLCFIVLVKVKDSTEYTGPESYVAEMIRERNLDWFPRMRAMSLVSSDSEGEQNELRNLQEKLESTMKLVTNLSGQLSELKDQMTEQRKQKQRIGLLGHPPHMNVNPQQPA
Experimental: The polysulfated glycosides of the present invention, depending on their chemical structure, inhibit the binding of inositol-1,4,5-trisphosphate (IP3) to its receptor in microsomal membrane preparations. As IP3 is a messenger molecule playing distinguished role in the activation of different cells, interfering with this function can explain the anti-asthmatic effect of these polysulfated glycosides. The IP3 antagonist effect of the polysulfated glycosides was determined using rat cerebellum membrane preparations according to Worley et al. (JBC 262, 12132, 1987).

[6] = 0.001 mg/kg intratracheally 2 hours before antigen challenge
[7] = 0.1 mg/kg intratracheally 2 hours before antigen challenge
[8] = 0.001 mg/kg intratracheally two hours before antigenic challenge
[9] = 0.1 mg/kg intratracheally two hours before antigenic challenge
[10] = read-out: IC50 (μg/ml) Average ± SEM (n) (converted)

In the case of O=S(=O)(O)OCC1OC(COS(=O)(=O)O)C(OS(=O)(=O)O)C1OC1OC(COS(=O)(=O)O)C(OS(=O)(=O)O)C(OS(=O)(=O)O)C1OS(=O)(=O)O [Example 1, 2,5-Anhydro-1,4,6-tri-O-sulfato-3-O-(2,3,4,6-tetra-O-sulfato-α-L-idopyranosyl)-D-mannitol hepta sodium salt], the “MAX** Contraction at maximal Ach concentration relative to control (mean ± SEM)” value [1, 6] is reported as 166 ± 41, the “ED50* log M acetylcholine (Ach), causing 50% contraction relative to control (mean ± SEM)” value [1, 6] is reported as 5.78 ± 0.30 log M and the “MAX** Contraction at maximal Ach concentration relative to control (mean ± SEM)” value [1, 7] is reported as 99 ± 16. The “ED50* log M acetylcholine (Ach), causing 50% contraction relative to control (mean ± SEM)” value [1, 7] was 4.70 ± 0.37 log M, the “tracheal hyper-reactivity to acetylcholine after ovalbumin challenge (in words)” value ([1]; dose of 0.1 mg/kg, 48 h after antigen challenge) was “brought this elevation back to control level” and the “number of PAS(+) cells as percent of total number of cells (average ± SEM)” value [2, 8] was 35.2 ± 3.5%. The “number of PAS(+) cells as percent of total number of cells (average ± SEM)” value [2, 9] was 17.5 ± 2.4%, the “number of PAS(+), mucus producing cells (in words)” value ([2]; dose of 0.1 mg/kg) was “significantly decreased” and the “Oedema* area of oedema relative to area of vasculature (average ± SEM)” value [3, 8] was 41 ± 6. For the same molecule, the “Oedema* area of oedema relative to area of vasculature (average ± SEM)” value [3, 9] was 53 ± 6, the “extent of aedema around the vasculature (in words)” value ([3]; smallest dose) was “significantly decreased” and the “peribronchial eosinophil number per visual field (average ± SEM)” value [4, 8] was 74 ± 2. The “peribronchial eosinophil number per visual field (average ± SEM)” value [4, 9] was 25 ± 2, the “number of peribronchially situated eosinophils in the lung (in words)” value ([4]; higher doses) was “the decrease become statistically significant” and the “number of peribronchially situated eosinophils in the lung (in words)” value ([4]; smallest dose) was “decreases the extent of it”. For the same molecule, the IC50 ([5]; read-out: Average IC50) was 1490 nM and the IC50 [5, 10] was 1750 nM.

O=S(=O)(O)OCC1OC(COS(=O)(=O)O)C(OS(=O)(=O)O)C1OC1OC(COS(=O)(=O)O)C(OS(=O)(=O)O)C(OS(=O)(=O)O)C1OS(=O)(=O)O [Example 2, 2,5-Anhydro-1,4,6-tri-O-sulfato-3-O-(2,3,4,6-tetra-O-sulfato-α-L-idopyranosyl)-D-mannitol hepta potassium salt] showed an IC50 ([5]; read-out: Average IC50) of 4810 nM and an IC50 [5, 10] of 5650 nM.

O=S(=O)(O)OC[C@H]1O[C@@H](O[C@H]2[C@H](OS(=O)(=O)O)[C@@H](COS(=O)(=O)O)O[C@@H]2COS(=O)(=O)O)[C@H](OS(=O)(=O)O)[C@@H](OS(=O)(=O)O)[C@@H]1OS(=O)(=O)O [Example 3, 2,5-Anhydro-1,4,6-tri-O-sulfato-3-O-(2,3,4,6-tetra-O-sulfato-β-D-glucopyranosyl)-D-mannitol hepta sodium salt] gave an IC50 ([5]; read-out: Average IC50) of 1390 nM and an IC50 [5, 10] of 1210 nM.

With O=S(=O)(O)OC[C@H]1O[C@H](COS(=O)(=O)O)[C@@H](OS(=O)(=O)O)[C@@H]1O[C@@H]1OC[C@H](OS(=O)(=O)O)[C@H](OS(=O)(=O)O)[C@H]1OS(=O)(=O)O [Example 4, 2,5-Anhydro-1,4,6-tri-O-sulfato-3-O-(2,3,4-tri-O-sulfato-α-L-arabinopyranosyl)-D-mannitol hexa potassium salt] the IC50 ([5]; read-out: Average IC50) was 20300 nM and the IC50 [5, 10] was 26300 nM.

With O=S(=O)(O)OC[C@H]1O[C@H](COS(=O)(=O)O)[C@@H](OS(=O)(=O)O)[C@@H]1O[C@H]1OC[C@@H](OS(=O)(=O)O)[C@@H](OS(=O)(=O)O)[C@@H]1OS(=O)(=O)O [Example 5, 2,5-Anhydro-1,4,6-tri-O-sulfato-3-O-(2,3,4-tri-O-sulfato-α-D-arabinopyranosyl)-D-mannitol hexa potassium salt] the IC50 ([5]; read-out: Average IC50) was 26500 nM and the IC50 [5, 10] was 34300 nM.

O=S(=O)(O)OC[C@H]1O[C@@H](O[C@H]2[C@H](OS(=O)(=O)O)[C@@H](COS(=O)(=O)O)O[C@@H]2COS(=O)(=O)O)[C@H](OS(=O)(=O)O)[C@@H](OS(=O)(=O)O)[C@@H]1O[C@H]1O[C@H](COS(=O)(=O)O)[C@@H](OS(=O)(=O)O)[C@H](OS(=O)(=O)O)[C@H]1OS(=O)(=O)O [Example 6, 2,5-Anhydro-1,4,6-tri-O-sulfato-3-O-(2,3,6,2′,3′,4′,6′-hepta-O-sulfato-β-D-maltosyl)-D-mannitol deca potassium salt] was tested, and the IC50 ([5]; read-out: Average IC50) was 222 nM and the IC50 [5, 10] was 287 nM.

O=S(=O)(O)OC[C@H]1O[C@@H](OC[C@H]2O[C@@H](O[C@H]3[C@H](OS(=O)(=O)O)[C@@H](COS(=O)(=O)O)O[C@@H]3COS(=O)(=O)O)[C@H](OS(=O)(=O)O)[C@@H](OS(=O)(=O)O)[C@@H]2OS(=O)(=O)O)[C@H](OS(=O)(=O)O)[C@@H](OS(=O)(=O)O)[C@@H]1OS(=O)(=O)O [Example 7, 2,5-Anhydro-1,4,6-tri-O-sulfato-3-O-[6-O-(2,3,4,6-tetra-O-sulfato-β-D-glucopyranosido)-2,3,4-tetra-O-sulfato-β-D-glucopyranosyl]-D-mannitol deca potassium salt] gave an IC50 ([5]; read-out: Average IC50) of 240 nM and an IC50 [5, 10] of 310 nM.

O=S(=O)(O)OC[C@H]1O[C@@H](OC[C@H]2O[C@H](CO[C@@H]3O[C@H](COS(=O)(=O)O)[C@@H](OS(=O)(=O)O)[C@H](OS(=O)(=O)O)[C@H]3OS(=O)(=O)O)[C@@H](OS(=O)(=O)O)[C@@H]2OS(=O)(=O)O)[C@H](OS(=O)(=O)O)[C@@H](OS(=O)(=O)O)[C@@H]1OS(=O)(=O)O [Example 8, 2,5-Anhydro-3,4-di-O-sulfato-1,6-bis-O-(2,3,4,6-tetra-O-sulfato-β-D-glucopyranosyl)-D-mannitol deca potassium salt] gave an IC50 ([5]; read-out: Average IC50) of 539 nM and an IC50 [5, 10] of 698 nM.

With O=S(=O)(O)OCC1OC(OCC2OC(OCC3OC(COC4OC(COC5OC(COS(=O)(=O)O)C(OS(=O)(=O)O)C(OS(=O)(=O)O)C5OS(=O)(=O)O)C(OS(=O)(=O)O)C(OS(=O)(=O)O)C4OS(=O)(=O)O)C(OS(=O)(=O)O)C3OS(=O)(=O)O)C(OS(=O)(=O)O)C(OS(=O)(=O)O)C2OS(=O)(=O)O)C(OS(=O)(=O)O)C(OS(=O)(=O)O)C1OS(=O)(=O)O [Example 9, 2,5-Anhydro-3,4-di-O-sulfato-1,6-bis-[(6-O-2,3,4,6-tetra-O-sulfato-β-D-glucopyranosido)-2,3,4-tri-O-sulfato-β-D-glucopyranosyl]-D-mannitol hexadeca potassium salt] the IC50 ([5]; read-out: Average IC50) was 115 nM and the IC50 [5, 10] was 148 nM.

Work on O=S(=O)(O)OC[C@H]1O[C@@H](OC[C@H]2O[C@H](CO[C@@H]3O[C@H](COS(=O)(=O)O)[C@@H](OS(=O)(=O)O)[C@H](OS(=O)(=O)O)[C@H]3OS(=O)(=O)O)[C@@H](OS(=O)(=O)O)[C@@H]2O[C@@H]2O[C@H](COS(=O)(=O)O)[C@@H](OS(=O)(=O)O)[C@H](OS(=O)(=O)O)[C@H]2OS(=O)(=O)O)[C@H](OS(=O)(=O)O)[C@@H](OS(=O)(=O)O)[C@@H]1OS(=O)(=O)O [Example 10, 2,5-Anhydro-4-O-sulfato-1,3,6-tris-O-(2,3,4,6-tetra-O-sulfato-β-D-glucopyranosyl)-D-mannitol trideca potassium salt] yielded an IC50 ([5]; read-out: Average IC50) of 137 nM and an IC50 [5, 10] of 177 nM.
